Source: ChEMBL document CHEMBL1828625, “4-benzimidazolyl-3-phenylbutanoic acids as novel PIF-pocket-targeting allosteric inhibitors of protein kinase PKCζ” (J Med Chem, 2011)
pIC50: −log10 of the molar value. Calls of active or inactive are those of the source. No cut-off for these calls is given here.

Tests used:
[1] = target: Ribosomal protein S6 kinase beta-1 (Homo sapiens) (UniProt P23443); assay: Inhibition of S6K1 at 50 uM
[2] = target: 3-phosphoinositide-dependent protein kinase 1 (Homo sapiens) (UniProt O15530); assay: Activation of PDK1 at 50 uM
3-phosphoinositide-dependent protein kinase 1 (Homo sapiens), sequence (O15530 whole entry, looked up): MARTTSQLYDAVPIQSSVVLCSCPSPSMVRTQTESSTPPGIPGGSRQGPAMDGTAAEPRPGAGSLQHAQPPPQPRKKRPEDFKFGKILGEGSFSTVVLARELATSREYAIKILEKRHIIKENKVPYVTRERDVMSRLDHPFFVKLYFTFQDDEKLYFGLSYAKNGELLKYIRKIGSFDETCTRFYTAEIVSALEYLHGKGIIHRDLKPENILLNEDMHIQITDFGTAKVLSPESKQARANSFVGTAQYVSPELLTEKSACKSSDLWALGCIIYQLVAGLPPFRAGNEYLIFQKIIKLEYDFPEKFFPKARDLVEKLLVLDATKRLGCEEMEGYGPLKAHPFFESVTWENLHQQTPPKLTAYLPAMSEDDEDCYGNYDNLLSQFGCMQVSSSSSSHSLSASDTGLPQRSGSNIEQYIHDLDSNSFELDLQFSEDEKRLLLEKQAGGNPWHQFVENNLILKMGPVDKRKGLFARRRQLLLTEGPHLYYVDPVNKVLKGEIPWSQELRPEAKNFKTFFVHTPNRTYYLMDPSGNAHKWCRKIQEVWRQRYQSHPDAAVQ

[3] = target: T1, Serine/threonine-protein kinase Sgk1 (Homo sapiens) (UniProt O00141); assay: Inhibition of SGK at 50 uM
T1 sequence (whole entry): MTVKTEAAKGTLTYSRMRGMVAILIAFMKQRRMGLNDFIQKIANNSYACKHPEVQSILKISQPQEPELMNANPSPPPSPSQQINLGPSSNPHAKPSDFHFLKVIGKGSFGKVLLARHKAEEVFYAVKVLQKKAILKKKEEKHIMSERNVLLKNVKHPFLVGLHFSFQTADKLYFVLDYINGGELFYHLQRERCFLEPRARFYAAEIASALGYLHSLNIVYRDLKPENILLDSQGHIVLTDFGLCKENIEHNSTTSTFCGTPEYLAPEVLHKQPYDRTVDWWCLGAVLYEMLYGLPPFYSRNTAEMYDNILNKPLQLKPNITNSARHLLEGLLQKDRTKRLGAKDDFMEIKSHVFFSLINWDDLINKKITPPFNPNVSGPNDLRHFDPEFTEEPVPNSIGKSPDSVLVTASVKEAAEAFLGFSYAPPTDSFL

[4] = target: T2, Protein kinase C zeta type (Homo sapiens, UniProt Q05513); assay: Inhibition of human PKCzeta assessed as [gamma32P]ATP utilization using myelin basic protein as substrate
T2 sequence (Q05513 whole entry): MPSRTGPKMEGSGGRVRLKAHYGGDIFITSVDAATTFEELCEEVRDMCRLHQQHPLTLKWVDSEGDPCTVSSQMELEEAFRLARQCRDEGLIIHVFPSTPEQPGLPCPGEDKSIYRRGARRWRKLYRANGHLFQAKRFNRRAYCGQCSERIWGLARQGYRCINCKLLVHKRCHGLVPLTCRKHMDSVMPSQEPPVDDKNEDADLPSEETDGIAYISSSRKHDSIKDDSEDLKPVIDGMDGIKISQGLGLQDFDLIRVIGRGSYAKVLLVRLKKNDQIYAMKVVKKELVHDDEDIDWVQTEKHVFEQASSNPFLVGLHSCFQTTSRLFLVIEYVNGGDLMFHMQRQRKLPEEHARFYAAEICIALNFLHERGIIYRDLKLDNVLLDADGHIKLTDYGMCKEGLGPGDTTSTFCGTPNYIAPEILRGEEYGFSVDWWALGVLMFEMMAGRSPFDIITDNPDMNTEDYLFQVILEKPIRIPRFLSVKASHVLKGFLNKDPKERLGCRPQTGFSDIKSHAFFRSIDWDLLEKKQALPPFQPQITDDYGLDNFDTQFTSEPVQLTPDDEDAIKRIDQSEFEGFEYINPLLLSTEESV

[5] = target: T2, Protein kinase C zeta type; assay: Inhibition of PKCzeta in human U937 cells assessed as inhibition of TNF-alpha-induced NF-kB activation by luciferase reporter gene assay; type: cell-based, U-937
[6] = target: T3, Protein kinase C iota type (Homo sapiens) (UniProt P41743); assay: Inhibition of PKCiota at 50 uM
T3 sequence (whole entry): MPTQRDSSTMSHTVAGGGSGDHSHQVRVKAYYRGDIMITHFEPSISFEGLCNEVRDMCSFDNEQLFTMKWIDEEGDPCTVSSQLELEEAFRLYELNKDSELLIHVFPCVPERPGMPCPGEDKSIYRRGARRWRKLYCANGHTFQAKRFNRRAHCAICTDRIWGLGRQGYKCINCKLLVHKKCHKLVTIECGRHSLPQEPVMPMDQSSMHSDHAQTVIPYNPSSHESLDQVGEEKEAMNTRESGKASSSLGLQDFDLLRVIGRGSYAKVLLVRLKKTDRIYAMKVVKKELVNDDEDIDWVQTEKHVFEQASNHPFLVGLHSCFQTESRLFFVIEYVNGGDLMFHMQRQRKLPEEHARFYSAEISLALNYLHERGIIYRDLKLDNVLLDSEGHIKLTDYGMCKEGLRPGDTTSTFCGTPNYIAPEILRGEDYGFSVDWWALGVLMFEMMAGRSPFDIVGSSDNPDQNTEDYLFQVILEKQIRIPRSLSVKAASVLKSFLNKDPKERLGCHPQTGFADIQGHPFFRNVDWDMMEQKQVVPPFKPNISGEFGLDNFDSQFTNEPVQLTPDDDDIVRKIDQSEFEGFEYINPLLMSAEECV

[7] = Inhibition of PKA at 50 uM
[8] = target: T3, Protein kinase C iota type (Homo sapiens); assay: Inhibition of PKCiota at 200 uM
[9] = target: Serine/threonine-protein kinase N2 (Homo sapiens) (UniProt Q16513); assay: Inhibition of PRK2 at 50 uM
Serine/threonine-protein kinase N2 (Homo sapiens), sequence (Q16513 whole entry, looked up): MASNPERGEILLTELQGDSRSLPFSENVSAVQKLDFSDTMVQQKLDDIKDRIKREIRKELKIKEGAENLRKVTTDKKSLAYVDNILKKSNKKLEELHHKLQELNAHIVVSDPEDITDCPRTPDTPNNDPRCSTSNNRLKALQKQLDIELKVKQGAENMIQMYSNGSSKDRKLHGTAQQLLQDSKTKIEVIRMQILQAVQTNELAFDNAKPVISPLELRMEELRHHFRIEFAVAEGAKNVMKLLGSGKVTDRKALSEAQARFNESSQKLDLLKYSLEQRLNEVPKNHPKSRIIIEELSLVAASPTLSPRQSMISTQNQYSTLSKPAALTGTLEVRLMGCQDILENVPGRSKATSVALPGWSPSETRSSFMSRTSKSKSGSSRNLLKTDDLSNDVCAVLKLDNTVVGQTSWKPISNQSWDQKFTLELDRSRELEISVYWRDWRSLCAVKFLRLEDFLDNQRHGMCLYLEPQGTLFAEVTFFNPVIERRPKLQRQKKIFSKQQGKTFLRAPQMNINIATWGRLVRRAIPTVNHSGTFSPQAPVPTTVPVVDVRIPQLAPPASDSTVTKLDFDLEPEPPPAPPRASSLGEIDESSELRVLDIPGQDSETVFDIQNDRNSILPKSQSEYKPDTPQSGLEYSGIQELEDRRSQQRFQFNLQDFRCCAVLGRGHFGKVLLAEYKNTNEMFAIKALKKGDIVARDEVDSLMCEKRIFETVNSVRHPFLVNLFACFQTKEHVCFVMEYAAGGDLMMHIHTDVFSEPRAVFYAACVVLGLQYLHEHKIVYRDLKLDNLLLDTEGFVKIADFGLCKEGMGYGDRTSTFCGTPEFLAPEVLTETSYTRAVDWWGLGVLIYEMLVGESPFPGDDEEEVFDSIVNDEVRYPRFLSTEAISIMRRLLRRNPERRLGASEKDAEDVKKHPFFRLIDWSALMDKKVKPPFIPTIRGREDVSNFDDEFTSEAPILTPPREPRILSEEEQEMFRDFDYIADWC

[10] = target: RAC-alpha serine/threonine-protein kinase (Homo sapiens) (UniProt P31749); assay: Inhibition of PKB-alpha at 50 uM
RAC-alpha serine/threonine-protein kinase (Homo sapiens), sequence (P31749 whole entry): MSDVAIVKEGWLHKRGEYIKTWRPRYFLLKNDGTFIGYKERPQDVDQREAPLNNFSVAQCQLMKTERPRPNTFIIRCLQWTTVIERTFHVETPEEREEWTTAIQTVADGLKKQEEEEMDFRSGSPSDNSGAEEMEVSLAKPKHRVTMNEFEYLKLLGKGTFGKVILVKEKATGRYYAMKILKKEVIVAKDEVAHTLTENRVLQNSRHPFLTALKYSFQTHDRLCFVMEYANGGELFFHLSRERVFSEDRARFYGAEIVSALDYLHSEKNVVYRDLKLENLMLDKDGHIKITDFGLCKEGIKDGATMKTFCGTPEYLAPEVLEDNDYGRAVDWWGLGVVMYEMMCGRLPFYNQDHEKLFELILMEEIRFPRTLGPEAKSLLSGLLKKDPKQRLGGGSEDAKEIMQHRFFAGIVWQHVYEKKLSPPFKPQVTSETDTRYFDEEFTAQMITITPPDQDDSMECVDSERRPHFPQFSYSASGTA

Ribosomal protein S6 kinase beta-1 (Homo sapiens), sequence (P23443 whole entry, looked up): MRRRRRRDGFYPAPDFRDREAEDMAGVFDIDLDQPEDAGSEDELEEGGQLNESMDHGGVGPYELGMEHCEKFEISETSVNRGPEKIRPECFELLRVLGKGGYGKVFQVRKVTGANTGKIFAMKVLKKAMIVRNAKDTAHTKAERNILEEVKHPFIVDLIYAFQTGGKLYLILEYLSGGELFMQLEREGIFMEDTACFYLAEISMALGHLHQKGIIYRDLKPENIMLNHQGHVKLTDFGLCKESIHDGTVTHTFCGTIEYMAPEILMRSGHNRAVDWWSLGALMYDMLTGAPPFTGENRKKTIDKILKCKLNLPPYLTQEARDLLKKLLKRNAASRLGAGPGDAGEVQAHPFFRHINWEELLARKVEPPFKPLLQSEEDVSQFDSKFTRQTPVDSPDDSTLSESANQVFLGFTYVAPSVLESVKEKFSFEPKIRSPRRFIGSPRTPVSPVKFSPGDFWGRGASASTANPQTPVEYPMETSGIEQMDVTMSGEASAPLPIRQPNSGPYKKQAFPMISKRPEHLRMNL

`O=C(O)CC(Cc1nc2cc(-c3ccccc3)ccc2[nH]1)c1ccc(Cl)cc1` (racemic) showed an inhibition [1] of 60%.

In the case of `O=C(O)CC(Cc1nc2cc(Cl)c(F)cc2[nH]1)c1ccc(Cl)cc1` (racemic), the fold change (FC) [2] was 3.

With `CC(C)(C)c1ccc(C(CC(=O)O)Cc2nc3cc(I)ccc3[nH]2)cc1` (racemic) the inhibition [3] was 30%.

`CC(C)(C)c1ccc(C(CC(=O)O)Cc2nc3ccc(I)cc3[nH]2)cc1` (racemic) showed a pIC50 [4] of 4.64 and a pIC50 [5] of 4.89.

For `CCCc1ccc(C(CC(=O)O)Cc2nc3cc(I)ccc3[nH]2)cc1` (racemic), the inhibition [6] was “inactive”, the inhibition [3] was “Active” and the inhibition [7] was “Active”. For the same compound, the inhibition [8] was “inactive”, the inhibition [9] was “Active” and the inhibition [10] was “Active”. For the same compound, the inhibition [1] was 60%.

Compound `O=C(O)CC(Cc1nc2cc(Cl)ccc2[nH]1)c1ccc(Cl)cc1Cl` (racemic) has a fold change (FC) [2] of 3.
